Test system: whole body oxygen consumption
Test: In vivo screen: whole body (resting) oxygen consumption in fatty Zucker rats by indirect calorimetry
Conditions: male fatty Zucker rats, oral gavage once daily for 6 days, measured the day after the last dose
Procedure: This in vivo screen is designed to evaluate the efficacy and cardiac effects of compounds that are tissue selective thyroid hormone agonists. The efficacy endpoints measured are whole body oxygen consumption and the activity of liver mitochrondrial alpha-glycerophosphate dehydrogenase (mGPDH). The cardiac endpoints that are measured are heart weight and heart mGPDH activity. The protocol involves dosing fatty Zucker rats for 6 days, then measuring oxygen consumption and harvesting of tissues for preparation of mitochondria and assaying of enzyme activity. […]
Oxygen consumption is measured the day after the last dose of compound is given using an open circuit, indirect calorimeter (Oxymax, Columbus Instruments, 950 North Hague Ave., Columbus, Ohio 43204). […] Rats are removed from their home cages, their body weights are recorded and they are placed in sealed chambers (43×43×10 cm) of the calorimeter and the chambers are placed in activity monitors. […] The activity monitors have 15 infrared light beams spaced one inch apart on each axis; ambulatory activity is recorded when two consecutive beams are broken and the results are recorded as counts. Oxygen consumption and ambulatory activity are measured every 10 minutes for 5-6.5 hours. […]

SMILES	stimulated oxygen consumption (doses of 0.005 to 0.3 mg/kg body weight)	stimulated oxygen consumption (dose of 1.0 mg/kg body weight)
CCOC(=O)C(=O)Nc1cc(C)c(Oc2ccc(O)c(C(O)c3ccc(F)cc3)c2)c(C)c1 (centres unmarked) [CGS-26214, ethyl N-[4-[3′-[(4-fluorophenyl)hydroxymethyl]-4′-hydroxyphenoxy]-3,5-dimethylphenyl]oxamate]	14 to 31%	
Cc1cc(NC(=O)C(=O)O)cc(C)c1Oc1ccc(O)c(C(C)C)c1 [CGS-23425, N-[3,5-dimethyl-4-(4′-hydroxy-3′-isopropylphenoxy)-phenyl]-oxamic acid]		27%
